Like-named read-outs stand apart in the source and are kept apart here. [UNA] = unlocked nucleic acid; m = 2'-O-methyl; r = 2'-OH (RNA)
How the values were obtained:
[1] = test system: HBV genome; experiment: siRNA IC50 (Table A); set-up: species or system Hepatitis B virus
[2] = test system: HBV rcDNA in HepDE19 cells; experiment: HepDE19 cell culture system, rcDNA quantitation using bDNA assay, MacSynergy II; assay type: cell-based, human hepatoma cell line; settings: for AVERAGE % INHIBITION: COMPOUND 3 0.000 μM
Description: In vitro combination studies were conducted using the method of Prichard and Shipman (Prichard M N, and Shipman C Jr., Antiviral Research, 1990, 14 (4-5), 181-205; and Prichard M N, et. al., MacSynergy II). HepDE19 cell culture system is a HepG2 (human hepatocarcinoma) derived cell line that supports HBV DNA replication and cccDNA formation in a tetracycline (Tet)-regulated manner and produces HBV rcDNA and a detectable reporter molecule dependent on the production and maintenance of cccDNA (Guo et al 2007. J. Virol 81:12472-12484). HepDE19 (50,000 cells/well) were plated in 96 well collagen-coated tissue-culture treated microtiter plates in DMEM/F12 medium supplemented with 10% fetal bovine serum, 1% penicillin-streptomycin and 1 μg/ml tetracycline and incubated in a humidified incubator at 37° C. and 5% CO2 overnight. Next day, the cells were switched to fresh medium without tetracycline and incubated for 4 hrs at 37° C. and 5% CO2. […] The two inhibitors were tested both singly as well as in combinations in a checkerboard fashion such that each concentration of inhibitor A was combined with each concentration of inhibitor B to determine their combination effects on inhibition of rcDNA production. Following a 7 day-incubation of cells with compound combinations, the level of rcDNA present in the inhibitor-treated wells was measured using a Quantigene 2.0 bDNA assay kit (Affymetrix, Santa Clara, Calif.) with HBV specific custom probe set and manufacturers instructions. […] The RLU data from the single compound treated cells were analyzed using XL-Fit module in Microsoft Excel to determine EC50 values using a 4-parameter curve fitting algorithm. Concurrently, the effect of compounds on cell viability was assessed using replicate plates, plated at a density of 5,000 cells/well and incubated for 4 days, to determine the ATP content as a measure of cell viability using the cell-titer glo reagent (CTG; Promega Corporation, Madison, Wis.) as per manufacturer's instructions.
In vitro combination studies were conducted using the method of Prichard and Shipman (Prichard M N, Shipman C, Jr., Antiviral Res, 14, 181-205 (1990)). The HepDE19 cell line was developed as described in Guo et al. (Guo et al., J Virol, 81, 12472-12484 (2007)). It is a human hepatoma cell line stably transfected with the HBV genome, and which can express HBV pregenomic RNA and support HBV rcDNA (relaxed circular DNA) synthesis in a tetracycline-regulated manner. HepDE19 cells were plated in 96 well tissue-culture treated microtiter plates in DMEM/F12 medium supplemented with 10% fetal bovine serum+1% penicillin-streptomycin without tetracycline and incubated in a humidified incubator at 37° C. and 5% CO2 overnight. […] The two inhibitors were tested both singly as well as in combinations in a checkerboard fashion such that each concentration of inhibitor A was combined with each concentration of inhibitor B to determine their combination effects on inhibition of rcDNA production. Following a 48 hour-incubation, the level of rcDNA present in the inhibitor-treated wells was measured using a bDNA assay (Affymetrix) with HBV specific custom probe set and manufacturers instructions. […] Concurrently, the effect of inhibitor combinations on cell viability was assessed using replicate plates that were used to determine the ATP content as a measure of cell viability using the Cell-TiterGlo reagent (Promega) as per manufacturer's instructions.
In vitro combination studies were conducted using the method of Prichard and Shipman (1990) (Prichard M N, Shipman C, Jr. 1990. A three-dimensional model to analyze drug-drug interactions. Antiviral Res 14:181-205 AND Prichard M N. 1992. MacSynergy II, University of Michigan).

[3] = test system: D type HBV in primary human hepatocytes; experiment: microbe, parasite or virus in culture; assay type: cell-based; settings: for AVERAGE % INHIBITION: COMPOUND 22 0 nM
Description: (§1) The mouse liver perfusion was applied to isolate PHHs. The isolated hepatocytes were further purified by Percoll. The cells were resuspended with culture media and seeded into the 96-well plates (6×10^4 cell/well) or 48-well plates (1.2×10^5 cell/well). The PHHs were infected with a D type HBV one day post seeding (day 1).
(§2) On day 2, the test compounds were diluted and added into the cell culture plates. The culture media containing the compounds were refreshed every other day. The cell culture supernatants were collected on day 8 for the HBV DNA and antigen determinations.
(§3) The compounds were tested at 7 concentrations, 3-fold dilution, in triplicate.
(§4) Two compounds were tested at 5×5 matrix, in triplicate plates.
DNA in the culture supernatants harvested on days 8 were isolated with QIAamp 96 DNA Blood Kit (Qiagen-51161). For each sample, 100 μl of the culture supernatants was used to extract DNA. The DNA was eluted with 100 μl, 150 μl or 180 μl of AE. HBV DNA in the culture supernatants was quantified by qPCR. The combination effect was analyzed by the MacSynergy software. The primers are described below.

[4] = test system: D type HBV in primary human hepatocytes (HBsAg); experiment: microbe, parasite or virus in culture; assay type: cell-based; settings: for AVERAGE % INHIBITION: COMPOUND 22 0 nM
Description: as §1, §2, §3, §4
(§5) HBsAg/HBeAg in the culture supernatants harvested on days 8 were measured by the HBsAg/HBeAg ELISA kit (Autobio) according to the manual. The samples were diluted with PBS to get the signal in the range of the standard curve. The inhibition rates were calculated with the formula below. The combination effect was analyzed by the MacSynergy software.
% Inh. HBsAg=[1-HBsAg quantity of sample/HBV quantity of DMSO control]×100.

[5] = test system: D type HBV in primary human hepatocytes (HBeAg); experiment: microbe, parasite or virus in culture; assay type: cell-based
Description: as §1, §2, §3, §4, §5
% Inh. HBeAg=[1-HBeAg quantity of sample/HBV quantity of DMSO control]×100.

[6] = Hepatitis B virus, HepDE19, read-out: AVERAGE % INHIBITION
[7] = Hepatitis B virus, Hepatocyte, read-out: AVERAGE % […] DNA
[8] = Hepatitis B virus, Hepatocyte, read-out: Inhibitor A EC50
[9] = Hepatitis B virus, Hepatocyte, read-out: Inhibitor EC50
[10] = Hepatitis B virus, Hepatocyte, read-out: AVERAGE % INHIBITION HBsAg

## 1m: siRNA duplex SEQ ID NO: 1 and 2 targeting the HBV genome (chain 1 AGGUAUGUUGCCCGUUUGUUU; chain 2 ACAAACGGGCAACAUACCUUU; chain 1: sugars from the 5' end [UNA]mrmrrmmrrrrrmrmrrr[UNA][UNA], backbone not given here; chain 2: sugars from the 5' end rrrrrrmrrrrrrrmrrrr[UNA][UNA], backbone not given here) [Compound 1m]
[1]
  IC50: 1.43 nM

## 2m: siRNA duplex SEQ ID NO: 3 and 4 targeting the HBV genome (chain 1 GCUCAGUUUACUAGUGCCAUU; chain 2 UGGCACUAGUAAACUGAGCUU; chain 1: sugars from the 5' end [UNA]rmmrmrrrrrrrrrrrmrr[UNA], backbone not given here; chain 2: sugars from the 5' end r9 m1 r7 m1 r3, backbone not given here) [Compound 2m]
[1]
  IC50: 0.37 nM

## 3m: siRNA duplex SEQ ID NO: 5 and 6 targeting the HBV genome (chain 1 CCGUGUGCACUUCGCUUCAUU; chain 2 UGAAGCGAAGUGCACACGGUU; chain 1: sugars from the 5' end [UNA]rrrmmrrrrrmrrrmmrr[UNA][UNA], backbone not given here; chain 2: sugars from the 5' end rrrrrrrrrrrmrrrrrmr[UNA][UNA], backbone not given here) [Compound 3m]
[1]
  IC50: 0.06 nM

## 4m: siRNA duplex SEQ ID NO: 7 and 8 targeting the HBV genome (chain 1 GCUCAGUUUACUAGUGCCAUU; chain 2 UGGCACUAGUAAACUGAGCUU; chain 1: sugars from the 5' end [UNA]rmmrmrrrrrrrrrrrmr[UNA][UNA], backbone not given here; chain 2: sugars from the 5' end rrrrrrrrrmrrrrrrrmr[UNA][UNA], backbone not given here) [Compound 4m]
[1]
  IC50: 0.31 nM

## 5m: siRNA duplex SEQ ID NO: 9 and 10 targeting the HBV genome (chain 1 CCGUGUGCACUUCGCUUCAUU; chain 2 UGAAGCGAAGUGCACACGGUU; chain 1: sugars from the 5' end [UNA]rrrmmrrrrrmrrrmrrrr[UNA], backbone not given here; chain 2: sugars from the 5' end r11 m1 r5 m1 r3, backbone not given here) [Compound 5m]
[1]
  IC50: 0.06 nM

## CCOC(=O)C1=C(CN2CCOCC2)NC(c2nccs2)=NC1c1ccc(F)cc1Br (stereo not shown) [GLS4]
[2]; GLS-4 0.008 μM
  AVERAGE % INHIBITION: −1.17%
[2]; GLS-4 0.016 μM
  AVERAGE % INHIBITION: −5.82%
[2]; GLS-4 0.031 μM
  AVERAGE % INHIBITION: 7.03%
[2]; GLS-4 0.063 μM
  AVERAGE % INHIBITION: 38.95%
[2]; GLS-4 0.125 μM
  AVERAGE % INHIBITION: 77.82%
[2]; GLS-4 0.250 μM
  AVERAGE % INHIBITION: 94.65%
[2]; GLS-4 0.500 μM
  AVERAGE % INHIBITION: 97.48%
[2]; GLS-4 1.000 μM
  AVERAGE % INHIBITION: 98.51%
[2]; GLS-4 2.000 μM
  AVERAGE % INHIBITION: 98.22%
[2]; rcDNA, bDNA assay, DE19 cells, read-out: Inhibitor B EC50
  EC50: 77 nM

## CC(C)OC(=O)[C@H](C)N[P@](=O)(CO[C@H](C)Cn1cnc2c(N)ncnc21)Oc1ccccc1 [TAF, tenofovir alafenamide, reference compound]
[2]; [6]
  inhibition at 0.000781 µM: -4.76%
  inhibition at 0.001563 µM: 3.49%
  inhibition at 0.003125 µM: 0.6%
  inhibition at 0.00625 µM: 10.6%
  inhibition at 0.0125 µM: 28.6%
  inhibition at 0.025 µM: 20%
  inhibition at 0.05 µM: 53.2%
  inhibition at 0.1 µM: 77.6%
  inhibition at 0.2 µM: 89.9%
[2]; Hepatitis B virus, HepDE19, read-out: Inhibitor B EC50
  EC50: 44.5 nM
[3]; [7]
  inhibition at 50 pM: -8.77%
  inhibition at 0.00012 µM: 6.36%
  inhibition at 0.00037 µM: 11.6%
  inhibition at 0.00041 µM: 28.8%
  inhibition at 0.00123 µM: 63.4%
  inhibition at 0.00333 µM: 42.6%
  inhibition at 0.0037 µM: 78.3%
  inhibition at 0.01 µM: 43.3%
[3]; [8]
  EC50: 0.405 nM
[3]; [9]
  EC50: 0.405 nM
[3]; TAF 0.12 nM
  AVERAGE % INHIBITION: −2.6%
[3]; TAF 0.37 nM
  AVERAGE % INHIBITION: −1.92%
[3]; TAF 3.33 nM
  AVERAGE % INHIBITION: 40.16%
[3]; TAF 10.00 nM
  AVERAGE % INHIBITION: 50.21%
[3]; TAF […]
  AVERAGE % INHIBITION: 4.95%
[4]; [10]
  inhibition at 50 pM: -7.35%
  inhibition at 0.00012 µM: 23%
  inhibition at 0.00014 µM: 12.8%
  inhibition at 0.00037 µM: 7.04%
  inhibition at 0.00041 µM: 11.3%
  inhibition at 0.00123 µM: 11%
  inhibition at 0.00333 µM: 16.1%
  inhibition at 0.0037 µM: -6.72%
  inhibition at 0.01 µM: 6.38%
[4]; [8]
  EC50: > 100 nM
[4]; [9]
  EC50: > 100 nM
[4]; TAF 0.1234568 nM
  AVERAGE % INHIBITION: 29.82%
[4]; TAF 0.3703704 nM
  AVERAGE % INHIBITION: 10.78%
[4]; TAF 1.1111111 nM
  AVERAGE % INHIBITION: 20.81%
[4]; TAF 3.3333333 nM
  AVERAGE % INHIBITION: 9.06%
[4]; TAF 10 nM
  AVERAGE % INHIBITION: 7.97%
[5]; [9]
  EC50: > 100 nM
[5]; TAF 0.05 nM, COMPOUND 3 0.00 nM
  AVERAGE % INHIBITION: 1.17%
[5]; TAF 0.12 nM, COMPOUND 22 0 nM
  AVERAGE % INHIBITION: 26.61%
[5]; TAF 0.14 nM, COMPOUND 3 0.00 nM
  AVERAGE % INHIBITION: −2.78%
[5]; TAF 0.37 nM, COMPOUND 22 0 nM
  AVERAGE % INHIBITION: 9.9%
[5]; TAF 0.41 nM, COMPOUND 3 0.00 nM
  AVERAGE % INHIBITION: 1.76%
[5]; TAF 1.23 nM, COMPOUND 3 0.00 nM
  AVERAGE % INHIBITION: 9.91%
[5]; TAF 3.33 nM, COMPOUND 22 0 nM
  AVERAGE % INHIBITION: 19.69%
[5]; TAF 3.70 nM, COMPOUND 3 0.00 nM
  AVERAGE % INHIBITION: 11.87%
[5]; TAF 10.00 nM, COMPOUND 22 0 nM
  AVERAGE % INHIBITION: 22.85%
[5]; TAF […], COMPOUND 22 0 nM
  AVERAGE % INHIBITION: 22.56%

Reference: patent US20220265817A1, “THERAPEUTIC COMPOSITIONS AND METHODS FOR TREATING HEPATITIS B” (priority 2017, published 2022)
